Assay results as given in PubChem BioAssay (NCI).
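GI50 = concentration required for 50% inhibition of growth. TGI marks complete inhibition of growth.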

Legend:
Test in all cases: NCI anticancer screen, dose series, 384-well format
KM12 colon = system: KM12 colon
HS 578T breast = system: HS 578T breast
CCRF-CEM leukemia = system: CCRF-CEM leukemia
HCT-116 colon = system: HCT-116 colon
T-47D breast = system: T-47D breast
EKVX NSCLC = system: EKVX NSCLC
SF-268 CNS = system: SF-268 CNS
MDA-MB-468 breast = system: MDA-MB-468 breast
HCT-15 colon = system: HCT-15 colon
SF-295 CNS = system: SF-295 CNS
HOP-92 NSCLC = system: HOP-92 NSCLC
UO-31 renal = system: UO-31 renal
MALME-3M melanoma = system: MALME-3M melanoma
MOLT-4 leukemia = system: MOLT-4 leukemia
U251 glioblastoma = system: U251 glioblastoma
HL-60(TB) leukemia = system: HL-60(TB) leukemia
MCF7 breast = system: MCF7 breast
OVCAR-4 ovarian = system: OVCAR-4 ovarian
LOX IMVI melanoma = system: LOX IMVI melanoma
NCI-H322M lung = system: NCI-H322M lung
NCI-H23 lung = system: NCI-H23 lung
RXF 393 renal = system: RXF 393 renal
RPMI-8226 leukemia = system: RPMI-8226 leukemia
NCI/ADR-RES ovarian = system: NCI/ADR-RES ovarian
A549 NSCLC = system: A549 NSCLC
OVCAR-5 ovarian = system: OVCAR-5 ovarian
HT29 colon = system: HT29 colon
BT-549 breast = system: BT-549 breast
TK-10 renal = system: TK-10 renal
DU-145 prostate = system: DU-145 prostate
OVCAR-3 ovarian = system: OVCAR-3 ovarian
HCC-2998 colon = system: HCC-2998 colon
OVCAR-8 ovarian = system: OVCAR-8 ovarian
IGROV1 ovarian = system: IGROV1 ovarian
SF-539 CNS = system: SF-539 CNS
MDA-MB-231 breast = system: MDA-MB-231 breast
PC-3 prostate = system: PC-3 prostate
K-562 leukemia = system: K-562 leukemia
SNB-19 CNS = system: SNB-19 CNS
M14 melanoma = system: M14 melanoma
ACHN renal = system: ACHN renal
A498 renal = system: A498 renal
NCI-H522 lung = system: NCI-H522 lung
NCI-H226 lung = system: NCI-H226 lung
SK-MEL-28 melanoma = system: SK-MEL-28 melanoma
SN12C renal = system: SN12C renal
NCI-H460 NSCLC = system: NCI-H460 NSCLC
SR leukemia = system: SR leukemia
COLO 205 colon = system: COLO 205 colon
786-0 renal = system: 786-0 renal
SK-MEL-5 melanoma = system: SK-MEL-5 melanoma
HOP-62 NSCLC = system: HOP-62 NSCLC
SNB-75 CNS = system: SNB-75 CNS
SW-620 colon = system: SW-620 colon
SK-OV-3 ovarian = system: SK-OV-3 ovarian
MDA-MB-435 melanoma = system: MDA-MB-435 melanoma
UACC-62 melanoma = system: UACC-62 melanoma
UACC-257 melanoma = system: UACC-257 melanoma
CAKI-1 renal = system: CAKI-1 renal

## CC(C)(C)c1nc(-c2cccc(NS(=O)(=O)c3c(F)cccc3F)c2F)c(-c2ccnc(N)n2)s1
KM12 colon
  GI50: 27700 nM
  TGI: > 70900 nM
HS 578T breast
  GI50: 33000 nM
  TGI: > 75900 nM
CCRF-CEM leukemia
  GI50: 14400 nM
  TGI: > 44100 nM
HCT-116 colon
  GI50: 11700 nM
  TGI: > 66400 nM
T-47D breast
  GI50: 41500 nM
  TGI: > 100000 nM
EKVX NSCLC
  GI50: 26600 nM
  TGI: 59600 nM
SF-268 CNS
  GI50: 42300 nM
  TGI: > 84500 nM
MDA-MB-468 breast
  GI50: 28600 nM
  TGI: 57700 nM
HCT-15 colon
  GI50: 26000 nM
  TGI: > 74400 nM
SF-295 CNS
  GI50: 48100 nM
  TGI: > 100000 nM
HOP-92 NSCLC
  GI50: 50000 nM
  TGI: > 94000 nM
UO-31 renal
  GI50: 16600 nM
  TGI: > 100000 nM
MALME-3M melanoma
  GI50: < 10 nM
MOLT-4 leukemia
  GI50: 6590 nM
  TGI: 24300 nM
U251 glioblastoma
  GI50: 53800 nM
  TGI: > 100000 nM
HL-60(TB) leukemia
  GI50: 3980 nM
  TGI: 27300 nM
MCF7 breast
  GI50: 25300 nM
  TGI: 62600 nM
OVCAR-4 ovarian
  GI50: 24900 nM
  TGI: 52000 nM
LOX IMVI melanoma
  GI50: 1280 nM
  TGI: > 63800 nM
NCI-H322M lung
  GI50: 23000 nM
  TGI: 69800 nM
NCI-H23 lung
  GI50: 13700 nM
  TGI: 52300 nM
RXF 393 renal
  GI50: 50500 nM
  TGI: > 81600 nM
RPMI-8226 leukemia
  GI50: 5830 nM
  TGI: 19700 nM
NCI/ADR-RES ovarian
  GI50: 22600 nM
  TGI: 53800 nM
A549 NSCLC
  GI50: 20200 nM
  TGI: 72500 nM
OVCAR-5 ovarian
  GI50: 23800 nM
  TGI: > 85200 nM
HT29 colon
  GI50: 12.4 nM
  TGI: > 58400 nM
BT-549 breast
  GI50: 42700 nM
  TGI: 70100 nM
TK-10 renal
  GI50: 11700 nM
  TGI: > 60700 nM
DU-145 prostate
  GI50: 14900 nM
  TGI: 41600 nM
OVCAR-3 ovarian
  GI50: 34100 nM
  TGI: 60800 nM
HCC-2998 colon
  GI50: 34800 nM
  TGI: > 74700 nM
OVCAR-8 ovarian
  GI50: 44300 nM
  TGI: 89000 nM
IGROV1 ovarian
  GI50: 7650 nM
  TGI: > 52600 nM
SF-539 CNS
  GI50: 49700 nM
  TGI: > 94200 nM
MDA-MB-231 breast
  GI50: 15000 nM
  TGI: 37400 nM
PC-3 prostate
  GI50: 48900 nM
  TGI: > 93600 nM
K-562 leukemia
  GI50: 4590 nM
  TGI: 20700 nM
SNB-19 CNS
  GI50: 48700 nM
  TGI: > 100000 nM
M14 melanoma
  GI50: < 10 nM
  TGI: < 17 nM
ACHN renal
  GI50: 183 nM
  TGI: > 100000 nM
A498 renal
  GI50: 60000 nM
  TGI: > 94600 nM
NCI-H522 lung
  GI50: 7220 nM
  TGI: 41000 nM
NCI-H226 lung
  GI50: 22100 nM
  TGI: 67000 nM
SK-MEL-28 melanoma
  GI50: < 10 nM
SN12C renal
  GI50: 38400 nM
  TGI: > 100000 nM
NCI-H460 NSCLC
  GI50: 29300 nM
  TGI: > 75700 nM
SR leukemia
  GI50: 6620 nM
  TGI: 23800 nM
COLO 205 colon
  GI50: < 10 nM
786-0 renal
  GI50: 43800 nM
  TGI: > 100000 nM
SK-MEL-5 melanoma
  GI50: < 10 nM
  TGI: > 100000 nM
HOP-62 NSCLC
  GI50: 55500 nM
  TGI: > 100000 nM
SNB-75 CNS
  GI50: > 62800 nM
  TGI: > 81300 nM
SW-620 colon
  GI50: 32400 nM
  TGI: > 77400 nM

## Nc1ccc(-c2ccc3ncc4ccc(=O)n(-c5cccc(C(F)(F)F)c5)c4c3c2)cn1
KM12 colon
  GI50: < 10 nM
  TGI: 2470 nM
HS 578T breast
  GI50: < 10 nM
  TGI: 50.8 nM
HCT-116 colon
  GI50: 25.5 nM
  TGI: 242 nM
T-47D breast
  GI50: < 10 nM
  TGI: 1310 nM
EKVX NSCLC
  GI50: < 10 nM
  TGI: 62.9 nM
SK-OV-3 ovarian
  GI50: < 10 nM
  TGI: 1020 nM
SF-268 CNS
  GI50: 34.5 nM
  TGI: 1140 nM
MDA-MB-468 breast
  GI50: < 10 nM
  TGI: 171 nM
HCT-15 colon
  GI50: < 10 nM
  TGI: 1080 nM
SF-295 CNS
  GI50: < 10 nM
  TGI: 196 nM
HOP-92 NSCLC
  GI50: 26.1 nM
  TGI: 1000 nM
MALME-3M melanoma
  GI50: < 10 nM
  TGI: 151 nM
MOLT-4 leukemia
  GI50: < 10 nM
  TGI: 28.5 nM
U251 glioblastoma
  GI50: 30.1 nM
  TGI: 1190 nM
HL-60(TB) leukemia
  GI50: 17.9 nM
  TGI: 128 nM
MCF7 breast
  GI50: < 10 nM
  TGI: 2740 nM
MDA-MB-435 melanoma
  GI50: 10.2 nM
  TGI: 91.4 nM
OVCAR-4 ovarian
  GI50: < 10 nM
  TGI: 38.9 nM
LOX IMVI melanoma
  GI50: < 10 nM
  TGI: 33.4 nM
UACC-62 melanoma
  GI50: < 10 nM
  TGI: 565 nM
NCI-H322M lung
  GI50: < 10 nM
  TGI: 46.9 nM
NCI-H23 lung
  GI50: 23.2 nM
  TGI: 400 nM
RXF 393 renal
  GI50: 17.5 nM
  TGI: 1400 nM
RPMI-8226 leukemia
  GI50: < 10 nM
  TGI: < 10 nM
NCI/ADR-RES ovarian
  GI50: 26.1 nM
  TGI: 1070 nM
A549 NSCLC
  GI50: < 10 nM
  TGI: 1070 nM
OVCAR-5 ovarian
  GI50: 13.4 nM
  TGI: 67.3 nM
HT29 colon
  GI50: 45.6 nM
  TGI: 1320 nM
BT-549 breast
  GI50: < 10 nM
  TGI: 35.8 nM
TK-10 renal
  GI50: < 10 nM
  TGI: 40.2 nM
DU-145 prostate
  GI50: < 10 nM
  TGI: 378 nM
UACC-257 melanoma
  GI50: 25.5 nM
  TGI: 199 nM
OVCAR-3 ovarian
  GI50: < 10 nM
  TGI: 293 nM
HCC-2998 colon
  GI50: 10.5 nM
  TGI: 318 nM
OVCAR-8 ovarian
  GI50: 11.4 nM
  TGI: 1370 nM
IGROV1 ovarian
  GI50: < 10 nM
  TGI: < 10 nM
SF-539 CNS
  GI50: < 10 nM
  TGI: 389 nM
MDA-MB-231 breast
  GI50: < 10 nM
  TGI: 12500 nM
PC-3 prostate
  GI50: < 10 nM
  TGI: 122 nM
SNB-19 CNS
  GI50: 52.3 nM
  TGI: 2380 nM
M14 melanoma
  GI50: < 10 nM
  TGI: 136 nM
ACHN renal
  GI50: < 10 nM
  TGI: 168 nM
A498 renal
  GI50: < 10 nM
  TGI: 13.2 nM
NCI-H522 lung
  GI50: < 10 nM
  TGI: 168 nM
SK-MEL-28 melanoma
  GI50: 26 nM
  TGI: 14200 nM
SN12C renal
  GI50: < 10 nM
  TGI: 86 nM
NCI-H460 NSCLC
  GI50: < 10 nM
  TGI: 71 nM
CAKI-1 renal
  GI50: 10.5 nM
  TGI: 1080 nM
SR leukemia
  GI50: < 10 nM
  TGI: < 10 nM
COLO 205 colon
  GI50: 20.5 nM
  TGI: 103 nM
SK-MEL-5 melanoma
  GI50: < 10 nM
  TGI: 24.5 nM
HOP-62 NSCLC
  GI50: < 10 nM
  TGI: 46.3 nM
SNB-75 CNS
  GI50: < 10 nM
  TGI: 1150 nM
